Results from ChEMBL document CHEMBL3046322, “Insect growth regulatory effects by diterpenes from Calceolaria talcana Grau & Ehrhart (Calceolariaceae: Scrophulariaceae) against Spodoptera frugiperda and Drosophila melanogaster” (2013).
Converted amounts (≈) assume the structure as drawn.

What was measured:
Type in all cases: functional
[1] = tested on: Spodoptera frugiperda; assay: Growth inhibitory activity against first-instar larval stage of Spodoptera frugiperda (fall armyworm) fed with compound incorporated diet assessed as length gained at 50 ug/ml after 21 days (reference value: 100%)
[2] = tested on: Spodoptera frugiperda; assay: Growth inhibitory activity against Spodoptera frugiperda (fall armyworm) larvae fed with compound containing diet assessed as relative growth index at 10 ug/ml (reference value: 1.0 no_unit)
[3] = tested on: Spodoptera frugiperda; assay: Growth inhibitory activity against Spodoptera frugiperda (fall armyworm) larvae fed with compound containing diet assessed as growth index at 5 ug/ml (reference value: 0.95 +/-0.02 no_unit)
[4] = tested on: Spodoptera frugiperda; assay: Growth inhibitory activity against first-instar larval stage of Spodoptera frugiperda (fall armyworm) fed with compound incorporated diet assessed as weight gained at 35 ug/ml after 21 days (reference value: 100%)
[5] = tested on: Spodoptera frugiperda; assay: Insecticidal activity against first-instar larval stage of Spodoptera frugiperda (fall armyworm) fed with compound incorporated diet assessed as mortality at 5 ug/ml after 21 days (reference value: 5.6%); details: 504 h
[6] = tested on: Spodoptera frugiperda; assay: Growth inhibitory activity against Spodoptera frugiperda (fall armyworm) larvae fed with compound containing diet assessed as relative growth index at 5 ug/ml (reference value: 1.0 no_unit)
[7] = tested on: Spodoptera frugiperda; assay: Insecticidal activity against first-instar larval stage of Spodoptera frugiperda (fall armyworm) fed with compound incorporated diet assessed as mortality at 50 ug/ml after 21 days (reference value: 5.6%); details: 504 h
[8] = tested on: Spodoptera frugiperda; assay: Growth inhibitory activity against po dosed fourth-instar larvae of Spodoptera frugiperda (fall armyworm) assessed as proportion of prothetely appearance of precocious pupal structure in larvae after 48 to 72 hr; parameters: scale not given: the % may be the effect or the level left
[9] = tested on: Spodoptera frugiperda; assay: Growth inhibitory activity against Spodoptera frugiperda (fall armyworm) larvae fed with compound containing diet assessed as reduction in adult emergence at 35 ug/ml
[10] = tested on: Spodoptera frugiperda; assay: Growth inhibitory activity against first-instar larval stage of Spodoptera frugiperda (fall armyworm) fed with compound incorporated diet assessed as length gained at 5 ug/ml after 21 days (reference value: 100%)
[11] = tested on: Spodoptera frugiperda; assay: Growth inhibitory activity against first-instar larval stage of Spodoptera frugiperda (fall armyworm) fed with compound incorporated diet assessed as weight gained at 35 ug/ml after 7 days (reference value: 100%); parameters: scale not given: the % may be the effect or the level left
[12] = tested on: Spodoptera frugiperda; assay: Growth inhibitory activity against Spodoptera frugiperda (fall armyworm) larvae fed with compound containing diet assessed as reduction in survival pupation at >10 ug/ml
[13] = tested on: Drosophila melanogaster; assay: Insecticidal activity against Drosophila melanogaster larvae fed with compound incorporated diet assessed as mortality at 20 ug/ml after 72 hr by not choice test (reference value: 0%)
[14] = tested on: Spodoptera frugiperda; assay: Insecticidal activity against first-instar larval stage of Spodoptera frugiperda (fall armyworm) fed with compound incorporated diet assessed as mortality at 5 ug/ml after 7 days (reference value: 5.6%); details: 168 h
[15] = tested on: Spodoptera frugiperda; assay: Growth inhibitory activity against first-instar larval stage of Spodoptera frugiperda (fall armyworm) fed with compound incorporated diet assessed as length gained at 50 ug/ml after 7 days (reference value: 100%)
[16] = tested on: Drosophila melanogaster; assay: Insecticidal activity against Drosophila melanogaster larvae fed with compound incorporated diet assessed as mortality after 72 hr by not choice test
[17] = tested on: Drosophila melanogaster; assay: Insecticidal activity against Drosophila melanogaster larvae fed with compound incorporated diet assessed as mortality at 5 ug/ml after 72 hr by not choice test (reference value: 0%)
[18] = tested on: Drosophila melanogaster; assay: Insecticidal activity against Drosophila melanogaster larvae fed with compound incorporated diet assessed as mortality at 35 ug/ml after 72 hr by not choice test (reference value: 0%)
[19] = tested on: Spodoptera frugiperda; assay: Growth inhibitory activity against Spodoptera frugiperda (fall armyworm) larvae fed with compound containing diet assessed as delay in time to pupation at 5 ug/ml
[20] = tested on: Spodoptera frugiperda; assay: Acute toxicity against last larval stage of Spodoptera frugiperda (fall armyworm) assessed as survival at 50 ug/ml applied topically onto abdomen measured after 24 hr (reference value: 98.8 +/-3.5%)
[21] = tested on: Spodoptera frugiperda; assay: Growth inhibitory activity against Spodoptera frugiperda (fall armyworm) larvae fed with compound containing diet assessed as growth index at 50 ug/ml (reference value: 0.95 +/-0.02 no_unit)
[22] = tested on: Spodoptera frugiperda; assay: Acute toxicity against last larval stage of Spodoptera frugiperda (fall armyworm) assessed as survival at 35 ug/ml applied topically onto abdomen measured after 24 hr (reference value: 98.8 +/-3.5%)
[23] = tested on: Spodoptera frugiperda; assay: Acute toxicity against last larval stage of Spodoptera frugiperda (fall armyworm) assessed as survival at 70 ug/ml applied topically onto abdomen measured after 24 hr (reference value: 98.8 +/-3.5%)
[24] = tested on: Spodoptera frugiperda; assay: Growth inhibitory activity against Spodoptera frugiperda (fall armyworm) larvae fed with compound containing diet assessed as reduction in survival pupation at >35 ug/ml
[25] = tested on: Spodoptera frugiperda; assay: Growth inhibitory activity against Spodoptera frugiperda (fall armyworm) larvae fed with compound containing diet assessed as relative growth index at 50 ug/ml (reference value: 1.0 no_unit)
[26] = tested on: Drosophila melanogaster; assay: Insecticidal activity against Drosophila melanogaster larvae fed with compound incorporated diet assessed as mortality at 100 ug/ml after 72 hr by not choice test (reference value: 0%)
[27] = tested on: Spodoptera frugiperda; assay: Acute toxicity against last larval stage of Spodoptera frugiperda (fall armyworm) assessed as survival at 20 ug/ml applied topically onto abdomen measured after 24 hr (reference value: 98.8 +/-3.5%)
[28] = tested on: Spodoptera frugiperda; assay: Growth inhibitory activity against Spodoptera frugiperda (fall armyworm) larvae fed with compound containing diet assessed as delay in time to pupation at 20 ug/ml

Row | SMILES | Length gained (% of control) [1] | Growth_index [2] | Growth_index [3] | Weight gain relative to control [4] | mortality at 5 µg/mL [5] | Growth_index [6] | mortality at 50 µg/mL [7] | Activity [8] | inhibition at 35 µg/mL [9] | Length gained (% of control) [10] | Activity [11] | inhibition (INH) [12] | mortality at 20 µg/mL [13] | mortality at 5 µg/mL [14] | Length gain relative to control [15] | LC50 [16] | Activity [22] | mortality at 100 µg/mL [26] | Activity [27] | also measured
1 | C=CC(C)(C)C1=C(O)C(=O)c2ccccc2C1=O | 0% | 0.45 | 0.71 | 7.8% | 66.7% | 0.69 | 100% | 30% | 0% | 64.3% | 5% | 0% | 65% | 41.7% | 0% | 15.8 µg/mL (≈ 65.2 µM) | – | – | – | –
2 | C=C[C@]1(C)CC[C@H]2C(=CC[C@@H]3[C@](C)(CO)CC[C@@H]4C[C@@]432)C1 | 0% | 0.25 | 0.41 | 0% | 55.8% | 0.45 | 100% | 30% | 0% | 55% | 1.4% | 0% | 98% | 20.8% | 0% | 9.2 µg/mL (≈ 32.1 µM) | – | – | – | mortality at 5 µg/mL [17]: 0%; mortality at 35 µg/mL [18]: 100%; Time [19]: >24 days
3 | CC(C)c1ccc2c(c1)CC[C@H]1[C@](C)(CO)CCC[C@]21C [POMIFERIN A] | 37.4% | 0.98 | 0.97 | 38.2% | 4.16% | 0.99 | 44% | 30% | 0% | 85.6% | 42.3% | – | 67% | 33.3% | 33.3% | 16.1 µg/mL (≈ 56.2 µM) | 6.9% | 82.9% | 51% | Activity [20]: 3.9%; Growth_index [21]: 0.54; Activity [23]: 0%; inhibition (INH) [24]: 0%; Growth_index [25]: 0.71
4 | C[C@H]1[C@H](C)CC[C@]2(C(=O)O)CC[C@]3(C)C(=CC[C@@H]4[C@@]5(C)CC[C@H](O)C(C)(C)[C@@H]5CC[C@]43C)[C@H]12 [URSOLIC ACID] | 0% | 0.73 | 0.93 | 0% | 79.1% | 0.98 | 100% | 30% | 0% | 57.2% | 49.2% | 0% | 15.1% | 4.2% | 3.4% | 41.3 µg/mL (≈ 90.4 µM) | 7.9% | 100% | 20.1% | Time [28]: >24 days
